Reference: the supplement of paper PMC10307832

Columns and labels:
Experiment in all cases: relative viability (nuclei count vs DMSO), 5 days (fraction); higher = more cells survive
[1] = compound: Cc1cc(Nc2cc(N3CCN(C)CC3)nc(Sc3ccc(NC(=O)C4CC4)cc3)n2)n[nH]1 [Tozasertib] + N=C(N)NC(=N)NCCc1ccccc1 [Phenformin] (partner 250 µM)
In short: (§1)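 Values are medians from duplicate plates. Each reflects relative viability, defined as the nuclei count of treated wells over that of vehicle wells. Lung cancer cell lines in 1536-well plates were pin-tool dosed one day after seeding with one drug alone or with a fixed anchor-drug dose plus five library-drug doses (not always all listed) in √10 steps, then fixed, stained and imaged at 4× after 5 days.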

[2] = compound: Cc1cc(Nc2cc(N3CCN(C)CC3)nc(Sc3ccc(NC(=O)C4CC4)cc3)n2)n[nH]1 [Tozasertib] + CS(=O)(=O)N1CCN(Cc2cc3nc(-c4cccc5[nH]ncc45)nc(N4CCOCC4)c3s2)CC1 [Pictilisib] (partner 1 µM)
In short: as §1

[3] = compound: Cc1cc(Nc2cc(N3CCN(C)CC3)nc(Sc3ccc(NC(=O)C4CC4)cc3)n2)n[nH]1 [Tozasertib] + CC(C)C[C@H](NC(=O)[C@H](Cc1ccccc1)NC(=O)c1cnccn1)B(O)O [Bortezomib] (partner 0.002 µM)
In short: as §1

[4] = compound: Cc1cc(Nc2cc(N3CCN(C)CC3)nc(Sc3ccc(NC(=O)C4CC4)cc3)n2)n[nH]1 [Tozasertib] + CC1(C)CCC(c2ccc(Cl)cc2)=C(CN2CCN(c3ccc(C(=O)NS(=O)(=O)c4ccc(N[C@H](CCN5CCOCC5)CSc5ccccc5)c(S(=O)(=O)C(F)(F)F)c4)cc3)CC2)C1 [Navitoclax] (partner 0.5 µM)
In short: as §1

[5] = compound: Cc1cc(Nc2cc(N3CCN(C)CC3)nc(Sc3ccc(NC(=O)C4CC4)cc3)n2)n[nH]1 [Tozasertib] + C[C@]1(O)C[C@@H](c2nc(-c3ccc4ccc(-c5ccccc5)nc4c3)c3c(N)nccn32)C1 [Linsitinib] (partner 1 µM)
In short: as §1

| Cell Line | relative viability ([1]; first compound 0.01265 µM) | relative viability ([1]; first compound 0.04 µM) | relative viability ([1]; first compound 0.1265 µM) | relative viability ([2]; first compound 0.004 µM) | relative viability ([2]; first compound 0.01265 µM) | relative viability ([2]; first compound 0.04 µM) | relative viability ([2]; first compound 0.1265 µM) | relative viability ([3]; first compound 0.004 µM) | relative viability ([3]; first compound 0.01265 µM) | relative viability ([3]; first compound 0.04 µM) | relative viability ([3]; first compound 0.1265 µM) | relative viability ([4]; first compound 0.004 µM) | relative viability ([4]; first compound 0.01265 µM) | relative viability ([4]; first compound 0.04 µM) | relative viability ([4]; first compound 0.1265 µM) | relative viability ([5]; first compound 0.004 µM) | relative viability ([5]; first compound 0.01265 µM) | relative viability ([5]; first compound 0.04 µM) | relative viability ([5]; first compound 0.1265 µM) | relative viability ([1]; first compound 0.004 µM) |
| --- | --- | --- | --- | --- | --- | --- | --- | --- | --- | --- | --- | --- | --- | --- | --- | --- | --- | --- | --- | --- |
| LOU-NH91 | 0.672 | 0.797 | 0.559 | 0.541 | 0.526 | 0.513 | 0.48 | 0.423 | 0.51 | 0.485 | 0.408 | 0.426 | 0.704 | 0.726 | 0.665 | 0.573 | 0.954 | 1.03 | 0.947 |  |
| LU99A | 0.819 | 0.773 | 0.646 | 0.338 | 0.339 | 0.3 | 0.216 | 1.1 | 0.917 | 0.881 |  | 0.739 | 0.636 | 0.715 | 0.414 | 0.655 | 0.448 | 0.412 | 0.292 | 0.903 |
| LXF-289 | 0.511 | 0.507 | 0.383 | 0.835 | 0.828 | 0.778 | 0.789 | 1 | 0.917 | 0.972 | 0.777 | 0.964 | 0.889 | 0.807 | 0.588 | 0.994 | 0.883 | 0.868 | 0.554 | 0.589 |
| NCI-H23 |  | 0.85 | 0.745 | 0.566 | 0.555 | 0.541 | 0.337 | 1.06 | 1.24 | 1.11 | 0.424 | 0.842 | 0.867 | 0.805 | 0.472 | 0.653 | 0.519 | 0.55 | 0.291 | 0.76 |
| NCI-H322M |  | 0.799 | 0.481 | 0.485 | 0.474 | 0.576 | 0.419 | 0.993 | 1.12 | 1.39 | 1.23 | 1.18 | 1.28 | 1.24 | 1.35 | 0.893 | 0.998 | 0.923 | 0.848 | 0.798 |
| NCI-H441 | 0.852 | 0.937 | 0.768 | 0.431 | 0.447 | 0.477 | 0.304 | 0.424 | 0.298 | 0.379 | 0.213 | 0.761 | 0.543 | 0.483 | 0.55 | 0.496 | 0.551 | 0.616 | 0.353 | 0.955 |
| NCI-H460 | 0.463 | 0.578 | 0.159 | 0.337 | 0.346 | 0.389 | 0.319 | 1.13 | 0.949 | 1.46 | 0.844 | 1.18 | 1.03 | 1.46 | 0.788 | 0.738 | 0.751 | 0.787 | 0.149 | 0.529 |
| NCI-H520 | 0.57 | 0.662 | 0.234 | 0.315 | 0.268 | 0.288 | 0.186 | 0.555 | 0.585 | 0.852 | 0.255 | 1.08 | 1.03 | 1.17 | 0.602 | 1.07 | 0.952 | 0.978 | 0.472 | 0.546 |
| NCI-H596 | 0.808 | 0.968 | 0.834 | 0.399 | 0.395 | 0.395 | 0.332 | 1.06 | 1.1 | 1.06 | 0.796 | 1.05 | 0.815 | 1.07 | 0.827 | 1.08 | 0.979 | 1.15 | 1.03 |  |
| NCI-H647 | 0.526 | 0.602 | 0.177 | 0.442 |  | 0.476 | 0.171 | 1.17 |  | 1.16 | 0.447 | 1.06 | 1.15 | 1.03 | 0.882 | 0.854 | 1.33 | 1.22 |  | 0.687 |
| NCI-H727 | 0.466 | 0.537 | 0.375 | 0.357 | 0.354 | 0.391 | 0.299 | 1.07 | 1.04 | 1.02 | 0.53 | 0.481 | 0.5 | 0.489 | 0.242 | 0.258 | 0.287 | 0.368 | 0.236 | 0.588 |
| NCI-H838 | 0.514 | 0.606 | 0.177 | 0.453 | 0.425 | 0.427 | 0.202 | 0.757 | 0.801 | 1.32 | 0.281 | 1.26 | 1.14 | 1.4 | 1.14 | 1.07 | 0.972 | 1.15 | 0.861 | 0.702 |
| NCI-H1355 | 0.424 | 0.459 | 0.367 | 0.426 | 0.461 | 0.52 | 0.272 | 1.19 | 1.15 | 1.27 | 0.606 | 0.867 | 0.917 | 1.15 | 0.768 | 0.751 | 0.816 | 0.912 | 0.722 | 0.469 |
| NCI-H1437 | 0.301 | 0.297 | 0.2 | 0.479 | 0.385 | 0.448 | 0.318 | 0.757 | 0.509 | 0.55 | 0.31 | 1.05 | 0.974 | 1.09 | 0.87 | 1.09 | 0.971 | 1 | 0.779 | 0.312 |
| NCI-H1651 | 0.339 | 0.316 | 0.267 | 0.655 | 0.62 | 0.634 | 0.377 | 1.05 | 0.851 | 0.979 | 0.885 | 1.17 | 1.05 | 1.18 | 1.07 | 1.19 | 0.899 | 0.972 | 0.923 | 0.319 |
| NCI-H1666 | 0.558 | 0.562 | 0.464 | 0.455 | 0.412 | 0.586 | 0.305 | 0.772 | 0.748 |  | 0.434 | 0.948 | 0.863 | 0.918 | 0.87 | 0.835 | 0.854 | 0.861 | 0.64 | 0.605 |
